Read-outs that look alike come from different tables or passages of the source.
Experiments:
Type in all cases: cell-based
Bacillus subtilis = assay: Disc test, Bauer-Kirby technique with 10 Mcg. discs; details: Bacillus subtilis, ATCC6633, strain ATCC 6633
Excerpt: (§1) Disc Test Results (Replicate Tests) With The Mutamicins, Sisomicin and
(§2) Bauer-Kirby Technique^1 With 10 Mcg. Discs
(§3) ^1 Bauer, Kirby, Sherris and Turck, American Journal of Clinical

Escherichia coli = assay: as above; details: Escherichia coli, read-out: Zone Size
Excerpt: as §1, §2, §3

Klebsiella pneumoniae [1] = assay: as above; details: Klebsiella pneumoniae
Excerpt: as §1, §2, §3

Proteus airabilis = assay: as above; details: strain Harding
Excerpt: as §1, §2, §3

Proteus rettgeri = assay: as above; details: Providencia rettgeri
Excerpt: as §1, §2, §3

Providence 164 = assay: as above; details: strain 164
Excerpt: as §1, §2, §3

Pseudomonas aeruginosa = assay: as above; details: Pseudomonas aeruginosa
Excerpt: as §1, §2, §3

Salmonella typhimurium = assay: as above; details: Salmonella enterica, Group B
Excerpt: as §1, §2, §3

Staphylococcus aureus = assay: as above; details: Staphylococcus aureus
Excerpt: as §1, §2, §3

Streptococcus pyogenes = assay: as above; details: Streptococcus pyogenes
Excerpt: as §1, §2, §3

E. coli = assay: Activity against resistant strains; details: E. coli W677/R55 and LA290/R55
Excerpt: (§4) In many instances, bacterial resistance is related to the organism's ability to inactivate the antibacterial agent via enzymatic (biochemical) means. Some species inactivate aminoglycosides antibiotics by acetylating the antibacterial agent, others by phosphorylation and still others by adenylylating. Some strains have several different inactivating capabilities. Further, the inactivation reactions occur at a specific site or sites on the antibacterial agent. We have shown by the compounds of this invention that alteration of sites on the antibiotic molecule not directly involved in inactivation processes can nevertheless frustrate these inactivation processes. […] The tables illustrate that the mutamicins include compounds which are active against strains having different mechanisms of inactivation of gentamicin, sisomicin, kanamycin, neomycin and torbramycin. For example, some mutamicins are effective against strains of E. coli which contain adenylylating R factors such as E. coli W677/R55 and LA290/R55. These E. coli strains are resistant to gentamicin, sisomicin and torbramycin. Some are also effective against gentamicin, tobramycin and kanamycin resistant adenylylating strains of Klebsiella pneumoniae and also kanamycin, neomycin phosphorylating strains of E. coli and Klebsiella pneumoniae. Further, some mutamicins are effective against gentamicin and sisomicin resistant strains of Pseudomonas aeruginosa and gentamicin, sisomicin, tobramycin resistant Providence which is sensitive to kanamycin. Thus, the mutamicins afford a means for combatting strains of bacteria which have already developed a variety of mechanisms for resisting the action of many of the antibiotics known in the art or currently in commercial use.

Klebsiella pneumoniae [2] = assay: Activity against resistant strains; details: gentamicin, tobramycin and kanamycin resistant adenylylating strains
Excerpt: as §4

Providence = assay: Activity against resistant strains; details: gentamicin, sisomicin, tobramycin resistant Providence
Excerpt: as §4

[3] = ATCC10536, strain ATCC 10536, 10 Mcg. discs
[4] = strain St. Michael 1574-1, 10 Mcg. discs
[5] = strain Swidinsky 4195, 10 Mcg. discs

Compound	zone of inhibition at 10 µg/disc (Bacillus subtilis) [mm]	zone of inhibition at 10 µg/disc (Escherichia coli; [3]) [mm]	zone of inhibition at 10 µg/disc (Escherichia coli; strain JR66, 10 Mcg. discs) [mm]	zone of inhibition at 10 µg/disc (Escherichia coli; strain JR88, 10 Mcg. discs) [mm]	zone of inhibition at 10 µg/disc (Escherichia coli; strain JR90, 10 Mcg. discs) [mm]	zone of inhibition at 10 µg/disc (Escherichia coli; [4]) [mm]	zone of inhibition at 10 µg/disc (Escherichia coli; [5]) [mm]	zone of inhibition at 10 µg/disc (Escherichia coli; strain W677/R55, 10 Mcg. discs) [mm]	zone of inhibition at 10 µg/disc (Klebsiella pneumoniae [1]; strain Ad 17) [mm]	zone of inhibition at 10 µg/disc (Klebsiella pneumoniae [1]; strain Ad 18) [mm]	zone of inhibition at 10 µg/disc (Klebsiella pneumoniae [1]; strain Georgetown 3020) [mm]	zone of inhibition at 10 µg/disc (Klebsiella pneumoniae [1]; strain Georgetown 3694) [mm]	zone of inhibition at 10 µg/disc (Proteus airabilis) [mm]	zone of inhibition at 10 µg/disc (Proteus rettgeri) [mm]	zone of inhibition at 10 µg/disc (Providence 164) [mm]	zone of inhibition at 10 µg/disc (Pseudomonas aeruginosa; strain Capetown 18) [mm]	zone of inhibition at 10 µg/disc (Pseudomonas aeruginosa; strain D-2) [mm]	zone of inhibition at 10 µg/disc (Pseudomonas aeruginosa; strain St. Michael 413) [mm]	zone of inhibition at 10 µg/disc (Pseudomonas aeruginosa; strain St. Michael 836) [mm]	zone of inhibition at 10 µg/disc (Pseudomonas aeruginosa; strain St. Michael 1262) [mm]	also measured
CN[C@@H]1[C@@H](O)[C@@H](O[C@H]2[C@H](N)[C@H](O)[C@H](N)[C@@H](O[C@H]3OC(CN)=CC[C@H]3N)[C@@H]2O)OC[C@]1(C)O [Mutamicin 4]	29	27	18	16	22	25	17	13	25	24	19	19	21	14	0	16	17	19	19	19	zone of inhibition at 10 µg/disc (Escherichia coli; strain 589, 10 Mcg. discs): 26 mm; zone of inhibition at 10 µg/disc (Escherichia coli; strain Baker 2, 10 Mcg. discs): 24 mm; zone of inhibition at 10 µg/disc (Klebsiella pneumoniae [1]; strain Ad 22): 26 mm; zone of inhibition at 10 µg/disc (Pseudomonas aeruginosa; strain St. Michael 1395): 19 mm; zone of inhibition at 10 µg/disc (Pseudomonas aeruginosa; strain Stone 20): 28 mm; zone of inhibition at 10 µg/disc (Pseudomonas aeruginosa; strain Stone 39): 20 mm; zone of inhibition at 10 µg/disc (Pseudomonas aeruginosa; strain Stone 130): 14 mm; zone of inhibition at 10 µg/disc (Pseudomonas aeruginosa; strain Stone 138): 11 mm; zone of inhibition at 10 µg/disc (Salmonella typhimurium): 25 mm; zone of inhibition at 10 µg/disc (Staphylococcus aureus; ATCC6538P, strain ATCC 6538P): 24 mm; zone of inhibition at 10 µg/disc (Staphylococcus aureus; strain 59N): 26 mm; zone of inhibition at 10 µg/disc (Staphylococcus aureus; strain 1118): 14 mm; zone of inhibition at 10 µg/disc (Staphylococcus aureus; strain Grey): 13 mm; zone of inhibition at 10 µg/disc (Staphylococcus aureus; strain Wood): 26 mm; zone of inhibition at 10 µg/disc (Staphylococcus aureus; strain Ziegler): 24 mm; zone of inhibition at 10 µg/disc (Streptococcus pyogenes; strain 27): 12 mm; zone of inhibition at 10 µg/disc (Streptococcus pyogenes; strain C): 12 mm
CN[C@@H]1[C@@H](O)[C@@H](O[C@@H]2[C@@H](N)[C@H](O[C@H]3OC(CN)=CC[C@H]3N)[C@@H](N)C[C@H]2N)OC[C@]1(C)O [Mutamicin 5]	28	24	0	0	0	22	0	10	20	21	0	0	19	13	9	0	0	11	10	10	zone of inhibition at 10 µg/disc (Escherichia coli): 18 mm; zone of inhibition at 10 µg/disc (Pseudomonas aeruginosa; strain St. Michael 1395): 0 mm; zone of inhibition at 10 µg/disc (Pseudomonas aeruginosa; strain Stone 20): 16 mm; zone of inhibition at 10 µg/disc (Pseudomonas aeruginosa; strain Stone 39): 12 mm; zone of inhibition at 10 µg/disc (Pseudomonas aeruginosa; strain Stone 130): 0 mm; zone of inhibition at 10 µg/disc (Pseudomonas aeruginosa; strain Stone 138): 0 mm; zone of inhibition at 10 µg/disc (Salmonella typhimurium): 22 mm; zone of inhibition at 10 µg/disc (Staphylococcus aureus; ATCC6538P, strain ATCC 6538P): 21 mm; zone of inhibition at 10 µg/disc (Staphylococcus aureus; strain 59N): 23 mm; zone of inhibition at 10 µg/disc (Staphylococcus aureus; strain Wood): 25 mm; zone of inhibition at 10 µg/disc (Staphylococcus aureus; strain Ziegler): 23 mm
CN[C@@H]1[C@@H](O)[C@@H](O[C@@H]2C[C@H](O[C@H]3OC(CN)=CC[C@H]3N)[C@@H](N)C[C@H]2N)OC[C@]1(C)O [Mutamicin 2]	33	28	26	22	25	27	25	21	23	25	21	22	26	24	25	22	26	27	28	27	zone of inhibition at 10 µg/disc (Escherichia coli; strain 589, 10 Mcg. discs): 24 mm; zone of inhibition at 10 µg/disc (Escherichia coli; strain LA290/R55, 10 Mcg. discs): 21 mm; zone of inhibition at 10 µg/disc (Pseudomonas aeruginosa; strain St. Michael 762): 26 mm; zone of inhibition at 10 µg/disc (Pseudomonas aeruginosa; strain St. Michael 1395): 28 mm; zone of inhibition at 10 µg/disc (Pseudomonas aeruginosa; strain Stone 20): 33 mm; zone of inhibition at 10 µg/disc (Pseudomonas aeruginosa; strain Stone 39): 27 mm; zone of inhibition at 10 µg/disc (Pseudomonas aeruginosa; strain Stone 130): 25 mm; zone of inhibition at 10 µg/disc (Pseudomonas aeruginosa; strain Stone 138): 23 mm; zone of inhibition at 10 µg/disc (Salmonella typhimurium): 27 mm; zone of inhibition at 10 µg/disc (Staphylococcus aureus; ATCC6538P, strain ATCC 6538P): 27 mm; zone of inhibition at 10 µg/disc (Staphylococcus aureus; strain 59N): 29 mm; zone of inhibition at 10 µg/disc (Staphylococcus aureus; strain 1118): 14 mm; zone of inhibition at 10 µg/disc (Staphylococcus aureus; strain Grey): 16 mm; zone of inhibition at 10 µg/disc (Staphylococcus aureus; strain Wood): 29 mm; zone of inhibition at 10 µg/disc (Staphylococcus aureus; strain Ziegler): 28 mm; zone of inhibition at 10 µg/disc (Streptococcus pyogenes; strain B-Cruz): 17 mm; zone of inhibition at 10 µg/disc (Streptococcus pyogenes; strain C): 15 mm
NC[C@H]1O[C@H](O[C@H]2[C@H](O)[C@@H](O[C@H]3O[C@H](CO)[C@@H](O)[C@H](N)[C@H]3O)[C@H](N)C[C@@H]2N)[C@H](N)C[C@@H]1O [tobramycin]	–	–	–	–	–	–	–	–	–	–	–	–	–	–	–	–	–	–	–	–	activity against strains containing adenylylating R factors (E. coli): resistant; activity against resistant adenylylating strains (Klebsiella pneumoniae [2]): resistant; activity against resistant Providence (Providence): resistant
NC[C@H]1O[C@H](O[C@H]2[C@H](O)[C@@H](O[C@H]3O[C@H](CO)[C@@H](O)[C@H](N)[C@H]3O)[C@H](N)C[C@@H]2N)[C@H](O)[C@@H](O)[C@@H]1O [kanamycin]	–	–	–	–	–	–	–	–	–	–	–	–	–	–	–	–	–	–	–	–	activity against resistant adenylylating strains (Klebsiella pneumoniae [2]): resistant; activity against resistant Providence (Providence): sensitive
